How the values were obtained:
Assay in all cases: relative viability (nuclei count vs DMSO), 5 days (fraction); higher = more cells survive
[1] = tested on: LU99A
How it was run: (§1)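 Lung cancer cell lines in 1536-well plates were dosed by pin tool the day after seeding, either with one drug alone or with a fixed anchor-drug dose plus five library-drug doses (not always all listed) in √10 steps. After 5 days, cells were fixed and their nuclei stained in one step (final 0.05% Triton X-100, 1% formaldehyde, 1 ug/ml Hoechst), then counted on 4× images. Relative viability is the nuclei count in treated wells divided by that in vehicle wells. Values are medians of duplicate plates.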

[2] = tested on: SK-LU-1
How it was run: as §1

[3] = tested on: NCI-H1437
How it was run: as §1

[4] = tested on: NCI-H460
How it was run: as §1

[5] = tested on: HCC-366
How it was run: as §1

[6] = tested on: NCI-H1651
How it was run: as §1

[7] = tested on: NCI-H358
How it was run: as §1

[8] = tested on: NCI-H1734
How it was run: as §1

[9] = tested on: NCI-H1975
How it was run: as §1

[10] = tested on: NCI-H2085
How it was run: as §1

[11] = tested on: NCI-H1793
How it was run: as §1

[12] = tested on: NCI-H2023
How it was run: as §1

[13] = tested on: NCI-H838
How it was run: as §1

[14] = tested on: NCI-H1650
How it was run: as §1

[15] = tested on: NCI-H441
How it was run: as §1

[16] = tested on: NCI-H2342
How it was run: as §1

[17] = tested on: NCI-H1355
How it was run: as §1

[18] = tested on: COR-L23
How it was run: as §1

[19] = tested on: LOU-NH91
How it was run: as §1

[20] = tested on: BEN
How it was run: as §1

Compound: CCN(CC)CCCCNc1ncc2cc(-c3cc(OC)cc(OC)c3)c(NC(=O)NC(C)(C)C)nc2n1 + Nc1ncn([C@H]2C[C@H](O)[C@@H](CO)O2)c(=O)n1 [Decitabine] (partner 2 µM)
- relative viability ([1]; first compound 0.01 µM): 1.01
- relative viability ([1]; first compound 0.03162 µM): 0.82
- relative viability ([1]; first compound 0.1 µM): 0.861
- relative viability ([1]; first compound 0.3162 µM): 0.944
- relative viability ([1]; first compound 1 µM): 0.79
- relative viability ([2]; first compound 0.01 µM): 0.628
- relative viability ([2]; first compound 0.03162 µM): 0.608
- relative viability ([2]; first compound 0.1 µM): 0.59
- relative viability ([2]; first compound 0.3162 µM): 0.705
- relative viability ([2]; first compound 1 µM): 0.448
- relative viability ([3]; first compound 0.01 µM): 0.599
- relative viability ([3]; first compound 0.03162 µM): 0.541
- relative viability ([3]; first compound 0.1 µM): 0.592
- relative viability ([3]; first compound 0.3162 µM): 0.58
- relative viability ([3]; first compound 1 µM): 0.578
- relative viability ([4]; first compound 0.01 µM): 0.505
- relative viability ([4]; first compound 0.03162 µM): 0.591
- relative viability ([4]; first compound 0.1 µM): 0.645
- relative viability ([4]; first compound 0.3162 µM): 0.584
- relative viability ([4]; first compound 1 µM): 0.412
- relative viability ([5]; first compound 0.01 µM): 0.316
- relative viability ([5]; first compound 0.03162 µM): 0.378
- relative viability ([5]; first compound 0.1 µM): 0.368
- relative viability ([5]; first compound 0.3162 µM): 0.41
- relative viability ([5]; first compound 1 µM): 0.319
- relative viability ([6]; first compound 0.01 µM): 0.625
- relative viability ([6]; first compound 0.03162 µM): 0.68
- relative viability ([6]; first compound 0.1 µM): 0.63
- relative viability ([6]; first compound 0.3162 µM): 0.75
- relative viability ([6]; first compound 1 µM): 0.589
- relative viability ([7]; first compound 0.01 µM): 0.199
- relative viability ([7]; first compound 0.03162 µM): 0.235
- relative viability ([7]; first compound 0.1 µM): 0.227
- relative viability ([7]; first compound 0.3162 µM): 0.24
- relative viability ([7]; first compound 1 µM): 0.19
- relative viability ([8]; first compound 0.01 µM): 0.485
- relative viability ([8]; first compound 0.03162 µM): 0.372
- relative viability ([8]; first compound 0.1 µM): 0.534
- relative viability ([8]; first compound 0.3162 µM): 0.473
- relative viability ([8]; first compound 1 µM): 0.475
- relative viability ([9]; first compound 0.01 µM): 0.396
- relative viability ([9]; first compound 0.03162 µM): 0.395
- relative viability ([9]; first compound 0.1 µM): 0.381
- relative viability ([9]; first compound 0.3162 µM): 0.389
- relative viability ([9]; first compound 1 µM): 0.358
- relative viability ([10]; first compound 0.01 µM): 0.559
- relative viability ([10]; first compound 0.03162 µM): 0.603
- relative viability ([10]; first compound 0.1 µM): 0.564
- relative viability ([10]; first compound 0.3162 µM): 0.533
- relative viability ([10]; first compound 1 µM): 0.549
- relative viability ([11]; first compound 0.01 µM): 0.496
- relative viability ([11]; first compound 0.03162 µM): 0.464
- relative viability ([11]; first compound 0.1 µM): 0.56
- relative viability ([11]; first compound 0.3162 µM): 0.472
- relative viability ([11]; first compound 1 µM): 0.352
- relative viability ([12]; first compound 0.01 µM): 0.221
- relative viability ([12]; first compound 0.03162 µM): 0.268
- relative viability ([12]; first compound 0.1 µM): 0.232
- relative viability ([12]; first compound 0.3162 µM): 0.236
- relative viability ([12]; first compound 1 µM): 0.206
- relative viability ([13]; first compound 0.01 µM): 0.481
- relative viability ([13]; first compound 0.03162 µM): 0.484
- relative viability ([13]; first compound 0.1 µM): 0.428
- relative viability ([13]; first compound 0.3162 µM): 0.422
- relative viability ([13]; first compound 1 µM): 0.418
- relative viability ([14]; first compound 0.01 µM): 0.398
- relative viability ([14]; first compound 0.03162 µM): 0.381
- relative viability ([14]; first compound 0.1 µM): 0.397
- relative viability ([14]; first compound 0.3162 µM): 0.368
- relative viability ([14]; first compound 1 µM): 0.384
- relative viability ([15]; first compound 0.01 µM): 0.118
- relative viability ([15]; first compound 0.03162 µM): 0.265
- relative viability ([15]; first compound 0.1 µM): 0.242
- relative viability ([15]; first compound 0.3162 µM): 0.261
- relative viability ([15]; first compound 1 µM): 0.244
- relative viability ([16]; first compound 0.01 µM): 0.692
- relative viability ([16]; first compound 0.03162 µM): 0.668
- relative viability ([16]; first compound 0.1 µM): 0.697
- relative viability ([16]; first compound 0.3162 µM): 0.781
- relative viability ([16]; first compound 1 µM): 0.807
- relative viability ([17]; first compound 0.01 µM): 0.364
- relative viability ([17]; first compound 0.03162 µM): 0.368
- relative viability ([17]; first compound 0.1 µM): 0.36
- relative viability ([17]; first compound 0.3162 µM): 0.396
- relative viability ([17]; first compound 1 µM): 0.339
- relative viability ([18]; first compound 0.01 µM): 0.4
- relative viability ([18]; first compound 0.03162 µM): 0.445
- relative viability ([18]; first compound 0.1 µM): 0.461
- relative viability ([18]; first compound 0.3162 µM): 0.442
- relative viability ([18]; first compound 1 µM): 0.43
- relative viability ([19]; first compound 0.01 µM): 0.799
- relative viability ([19]; first compound 0.03162 µM): 0.783
- relative viability ([19]; first compound 0.1 µM): 0.875
- relative viability ([19]; first compound 0.3162 µM): 0.801
- relative viability ([19]; first compound 1 µM): 0.804
- relative viability ([20]; first compound 0.01 µM): 0.691
- relative viability ([20]; first compound 0.03162 µM): 0.728
- relative viability ([20]; first compound 0.1 µM): 0.808
- relative viability ([20]; first compound 0.3162 µM): 0.797
- relative viability ([20]; first compound 1 µM): 0.572
